# Earlier results as cited in US11766411B2, “Use of cannabinoids in the treatment of epilepsy” (GW Research Limited, priority 2014, dated 2023).
# Conditions: Consroe et al., 1977; cited from earlier work
smiles,measurement,value
"CCCCCc1cc(O)c2c(c1)OC(C)(C)[C@@H]1CCC(C)=C[C@@H]21 [THC, Tetrahydrocannabinol]",effect on convulsions,pro-convulsant
